From patent publication US4452817A, “Anaesthetic compositions containing 2,6-diisopropylphenol” (Imperial Chemical Industries PLC, priority 1974, dated 1984) come the findings set out here.

The nature of series [1]: HD50 (anaesthesia, loss of righting reflex) and LD50 in mice, intravenous. Particulars: mouse, in vivo; for LD50: mice. As for the experimental part: (§1) Each mouse is various groups of 10 mice is injected intravenously with a 1% sterile solution of 2,6-diisopropylphenol as described in Example 14, the total dose administered being the same within any group but differing between groups.

The subject of series [2] is mice. Described as above. Particulars: Mus musculus, read-out: HD50 (dose required to cause anaesthesia, loss of righting reflex for at least 30 seconds, in 5 out of 10 mice). As for the experimental part:
as §1

The test system of series [3] is mice. The series is described as follows: Mean sleeping time of mice after twice the HD50, intravenous. The series is classed as in vivo, mouse. Particulars: for 2,6-diisopropylphenol 27 mg./kg., standard deviation ±0.59 minutes. As for the experimental part: Each of 10 mice is injected intravenously with 27 mg./kg. bodyweight (twice the HD50) of 2,6-diisopropylphenol as a 1% sterile solution described in Example 14.

Series [4] has as its system mice, rats, rabbits, cats, rhesus or pigtail monkeys, pigs, sheep, horses, or cattle. The series is described as follows: Intravenous anaesthesia in various animal species. The series is classed as in vivo. The protocol:
Anaesthesia is produced in less than 1 minute and lasts, depending upon the species and the dose, from 3 to 25 minutes. […] The compound may also be administered intramuscularly.

The next series concerns pigtail monkey. Particulars: 2% solution. As for the experimental part: A 2% sterile solution of 2,6-diisopropylphenol prepared as described in Example 14 is administered intravenously to a pigtail monkey weighing 6.8 kg. at a rate of 0.05 mg. of phenol/kg. bodyweight/second until a dose of 34 mg. (5 mg./kg. bodyweight) of the phenol has been injected.
The test system of series [5] is cat. Particulars: 10 mg./kg. i.v. plus four supplementary i.v. injections each of 2.0 mg./kg. From the text: A cat weighing 2.5 kg. is anaesthetised exactly as described in Example 17.
The test system of series [6] is cat. Particulars: 10 mg./kg. i.v., topical anaesthetic applied to the larynx. From the text: A cat is anaesthetised exactly as described in Example 17. […] Anaesthesia is thereafter maintained with an inhalation anaesthetic delivered through an Ayre's T-piece circuit.
The subject of series [7] is cat. The series is described as follows: Intramuscular anaesthesia in a cat (Example 20). Particulars: 35 mg./kg. intramuscularly. The series is classed as in vivo. The protocol:
Righting reflexes are lost after 15 minutes, after a further 25 minutes anaesthesia has deepened sufficiently to allow intubation to be carried out. Muscle tone returns after a further 60 minutes and thereafter recovery is uneventful.

In series [8] the test system is cat. Particulars: 5 cats, 2% solution.
The mark [9] stands for this setting: LD50 (dose required to kill 5 out of 10 mice), intravenous, 2,6-diisopropylphenol as 1% sterile solution of Example 14.
[10] abbreviates: intravenous, single dose of between 2.5 and 10 mg. per kg. bodyweight.

With `CC(C)c1cccc(C(C)C)c1O` [2,6-diisopropylphenol], in series [1], the selectivity ratio is 4.14. In series [1] (setting [9]), this compound returned an LD50 of 56 mg/kg. Further, in series [1] (LD50 dose in mice (general description)), the LD50 came to 65 mg/kg. In addition, in the series on mice [2], the ED50 is 13.5 mg/kg. Moreover, the “Mean sleeping time after twice the HD50” value in the series on mice [3] amounted to 4.29 min. In addition, the Quality of recovery result in series [4] (all animals, intravenous, 2.5 to 10 mg. per kg.) is “normal and rapid”. The Adverse side-effects result in series [4] (at anaesthetic doses) is “no adverse side-effects are noted”. In [4] (setting [10]), the “Quality of anaesthesia produced” value was “smooth and rapid anaesthesia”; the “Time in which anaesthesia is produced” value was “less than 1 minute”. Moreover, the Induction of anaesthesia result with pigtail monkey (5 mg./kg. i.v. at 0.05 mg./kg./second) was “smooth and rapid”. Besides, in the series on pigtail monkey (5 mg./kg. i.v.), the Duration of anaesthesia result is given as “approximately 6 minutes”, the Muscle relaxation result is listed as “muscle relaxation is produced”, the Quality of recovery entry was “rapid” and the Spinal reflexes result is given as “spinal reflexes are depressed”. Besides, in the series with pigtail monkey (5 mg./kg. i.v.), the “Time after induction at which recovery is almost complete” value worked out at 16 min. Moreover, in the series with cat [5], the “Quality of recovery after the operation” value is reported as “rapid” and the “Time after completion of the operation until cat is able to stand” value was found to be 35 min. Further, the “Maintenance of anaesthesia during 45 minute laparotomy” value with cat [5] (2% solution) was “anaesthesia is maintained during that time”. Besides, the Depth of anaesthesia result in the series on cat [6] is recorded as “sufficient depth to allow intubation of the trachea”. Moreover, in the series with cat [7] (2% solution), the “Further time (after intubation depth) until muscle tone returns” value worked out at 60 min, the “Further time after loss of righting reflexes until anaesthesia is deep enough for intubation” value is 25 min, the Quality of recovery entry is “uneventful” and the “Time to loss of righting reflexes” value was found to be 15 min. For the same compound, the “Pain or lesion at the site of injection” value in the series on cat [7] (during the subsequent 7 days) is reported as “No pain or lesion at the site of injection is observed”. Also, the Induction of anaesthesia entry in the series with cat [8] (10 mg./kg. i.v. at 0.05 mg./kg./second) was “rapid and free from excitment”. In the series on cat [8] (10 mg./kg. i.v.), the Muscle relaxation entry is on record as “muscle relaxation is produced”; the “Quality of further recovery” value is “smooth and rapid”; the Spinal reflexes entry was “spinal reflexes are depressed”; the “Time to return of response to painful stimulation” value is listed as “approximately 10 minutes”. The “Mean time from induction to reappearance of righting reflexes” value in the series with cat [8] (10 mg./kg. i.v., standard deviation ±7.35 minutes) was determined as 34 min. Also, the “Mean time after induction until cat is able to stand again” value with cat [8] (10 mg./kg. i.v., ±10.29 minutes) is 42.6 min.

As for `CCCC(C)C1(CC)C(=O)NC(=S)NC1=O` (centres unmarked) [thiopentone sodium, reference compound], the selectivity ratio in series [1] came to 4.26. In series [1] (setting [9]), the LD50 stood at 100 mg/kg. Further, in the series with mice [2], the ED50 was determined as 23.5 mg/kg. Also, the “Mean sleeping time after twice the HD50” value in the series with mice [3] was 5.97 ± 1.63 min.
